Results on 1 substance are retold here after US6491922B1, “Methods and compounds for treating autoimmune and vascular disease” (Cornell Research Foundation, Inc., priority 1996, dated 2002).

One series deals with E-selectin. Nature of the series: Endotoxin-induced E-selectin expression on endothelial cells (FACS). It is filed as cell-based, human. Conditions: LPG pretreatment 1 h. Here is the method: (§1) Endothelial cells pretreated with LPG at indicated amounts for 1 h were subsequently challenged with endotoxin. Washed cells incubated with monoclonal antibody specific for E-selectin or ICAM-1 were counter stained with fluorescein labeled anti-murine antibody, fixed and analyzed by FACS.

The next series relates to tissue factor. Nature of the series: Tissue factor production by endothelial cells (one-stage clotting assay). Format: cell-based, human. Here is the method:
Endothelial cell monolayers were pretreated with LPG for 1 hour and stimulated with endotoxin. Cultured endothelial cells, when stimulated by endotoxin, expressed high amounts of tissue factor. […] The production of tissue factor (in culture supernatant) is determined by a one-stage clotting assay. Helin et. al., “Allogeneic Induction of the Human T-cell-instructed Monocyte Procoagulant Response is Rapid and is Elicited by HLA-DR,” J. Exp. Med. 158: 962-75 (1983), which is hereby incorporated by reference.
To further examine if LPG can inhibit other endothelial cell functions, it was determined whether LPG inhibits thrombosis. Since thrombosis is mediated by the release of tissue factor (“TF”) by endothelial cells, the ability of LPG to inhibit TF production was evaluated. Cultured endothelial cells when stimulated by endotoxin express TF as determined by a one-stage clotting assay. Helin et. al., “Allogeneic Induction of the Human T-cell-instructed Monocyte Procoagulant Response is Rapid and is Elicited by HLA-DR,” J. Exp. Med. 158: 962-75 (1983), which is hereby incorporated by reference. […] To explore whether this effect was agonist specific, another agonist, TNF-α which is known to up-regulate TF generation, was used.

In a further series the test system is ICAM-1. The experiment in a line: Endotoxin-induced ICAM-1 expression on endothelial cells (FACS). It is filed as cell-based, human. Conditions: LPG pretreatment 1 h. The protocol: as §1
The next series deals with U1 and ACH-2 cells. The experiment in a line: Cell viability and proliferation (bromo-deoxy-uridine incorporation) of HIV-infected cell lines. It is filed as cell-based, human.
Another series has as its system TNF-α mRNA. The experiment in a line: TNF-α mRNA expression and stability after endotoxin. It is filed as cell-based, human.
In a further series the test system is GAPDH mRNA. Nature of the series: GAPDH control transcript (Northern analysis, nuclear run-off). Format: cell-based, human.
The test system of series [1] is HIV p24 antigen, U1 cells. Nature of the series: HIV p24 antigen production in chronically HIV-infected U1 cells. Format: cell-based. Particulars: 72 h. The protocol:
LPG, the major surface molecule of Leishmania, has macrophage deactivating functions. Based on the ability of LPG to suppress the generation of ROI and cytokine gene expression, we evaluated the potential that LPG may similarly suppress HIV production. FIGS. 27A-D illustrate the effect of 2 μM LPG pretreatment for 2 h on the induction HIV from chronically HIV-infected monocytic and T cell lines respectively, U1 and ACH-2 cells. LPG treatment of U1 cells for 72 h inhibited basal production of HIV p24 antigen at basal and induction in response to PMA, TNF-α and LPS by 90%, 82%, 60% and 66%, respectively (FIGS. 27A, B). The suppression of HIV p24 antigen production was time-dependent (FIG. 27B). […] The inhibition was also time-dependent. The results are the mean of 2 separate experiments and the SD was less than 10%.

A further series deals with endothelial cells. The experiment in a line: ^3H-lyso-PI binding to endothelial cells. Details: species or system human. Particulars: cold-LPG competition at 20×molar excess; n=2. Here is the method: To evaluate whether lyso-PI may directly bind to endothelial cells, endothelial cells (10^6 per ml) were incubated with ^3H-lyso-PI (1 μM [specific activity, ˜10,000 cpm/nmole], 45 min, 25° C.). As a control, endothelial cells were pretreated with LPG (20 μM, 15 min, 25° C.) before the incubation with ^3H-lyso-PI. Following incubation, the cell suspension was layed onto silicone oil (Silicones FC-50, General Electric, Waterford, N.Y.) and cell-bound ^3H-lyso-PI was separated from free-^3H-lyso-PI by centrifugation (10,000 g, 10 min, room temperature). The amount of ^3H-lyso-PI in the cell pellet and in the supernatant were solubilized in Ecoscint (National Diagnostics, Highland Park, N.J.) and quantitated by a β-emission counter (Beckman Instruments, Palo Alto, Calif.).

“Also recorded” adds a separate entry of the source.

On to lipophosphoglycan [LPG], for which, in the series on E-selectin, the “effect on endotoxin-mediated expression of E-selectin” value was “strongly suppressed; also recorded: blockage or suppression”. In addition, the “effect on TNF-α induction of endothelial cell production of TF” value in the series with tissue factor is listed as “no effect”. Also, the “effect on endotoxin-induction of TF” value with tissue factor (LPG 2 μM) is recorded as “completely abrogated”. In addition, the “effect on endotoxin induction of TF production” value with tissue factor (LPG pretreatment 1 hour) is “dose-dependent inhibition”. Also, the “effect on endotoxin-mediated expression of ICAM-1” value in the series with ICAM-1 is recorded as “strongly suppressed; also recorded: blockage or suppression”. In addition, the “percentages of viable cells” value in the series with U1 and ACH-2 cells (cells treated or not treated with LPG) is listed as 98%. Besides, the “effect on cell proliferation (bromo-deoxy-uridine incorporation)” value in the series on U1 and ACH-2 cells (each of the stimulation conditions) is “did not alter”. For the same substance, the “effect on endotoxin induction of TNF-α expression” value in the series on TNF-α mRNA (LPG added 2 h after endotoxin) is recorded as “effective”. The “effect on endotoxin induction of TNF-α expression” value with TNF-α mRNA (LPG added 4 h prior to addition of endotoxin) was “significantly suppressed”. Besides, the “effect on TNF-α mRNA stability” value in the series with TNF-α mRNA (actinomycin D, data not shown) was “minimal effect”. Also, in the series on GAPDH mRNA (THP-1, Northern analysis), the “effect on constitutive transcription of GAPDH mRNA” value was “not affected; also recorded: no effect”. Moreover, the “effect on GAPDH transcription” value in the series on GAPDH mRNA (nuclear run-on assay (Example 35)) is “no effect”. Moreover, in series [1] (2 μM LPG pretreatment 2 h), the “inhibition of HIV p24 antigen induction in response to LPS” value is 66%, the “inhibition of HIV p24 antigen induction in response to PMA” value is given as 82% and the “inhibition of HIV p24 antigen induction in response to TNF-α” value amounted to 60%. In addition, in series [1] (2 μM LPG), the “inhibition of basal production of HIV p24 antigen” value amounted to 90%. In addition, in the series on endothelial cells, the “inhibition of ^3H-lyso-PI binding” value is on record as 29±3%.
